Numbers after ± are expanded uncertainties.
Test: xn = mol fraction of the nth substance listed
Conditions: 101 kPa, Liquid; for viscosity: Concentric cylinders viscometry; for mass density: Vibrating tube method

COC(C)(C)C [2-methoxy-2-methylpropane] + CCCCCCO
Conditions	mass density, 293.15 K [kg/m3]	mass density, 298.15 K [kg/m3]	mass density, 303.15 K [kg/m3]	mass density, 308.15 K [kg/m3]	viscosity, 293.15 K [mPa·s]	viscosity, 298.15 K [mPa·s]	viscosity, 303.15 K [mPa·s]	viscosity, 308.15 K [mPa·s]
x1 = 0.0103	818.26 ± 0.63	814.71 ± 0.63	811.1 ± 0.63	807.46 ± 0.62	5.223 ± 0.22	4.46 ± 0.19	3.832 ± 0.16	3.31 ± 0.14
x1 = 0.0204	817.68 ± 0.62	814.12 ± 0.62	810.49 ± 0.62	806.85 ± 0.61	5.039 ± 0.21	4.314 ± 0.18	3.714 ± 0.16	3.214 ± 0.13
x1 = 0.0304	817.11 ± 0.61	813.53 ± 0.61	809.9 ± 0.61	806.24 ± 0.6	4.87 ± 0.2	4.175 ± 0.17	3.6 ± 0.15	3.12 ± 0.13
x1 = 0.0408	816.51 ± 0.6	812.92 ± 0.6	809.27 ± 0.6	805.6 ± 0.59	4.696 ± 0.2	4.036 ± 0.17	3.486 ± 0.15	3.026 ± 0.13
x1 = 0.0495	816 ± 0.59	812.4 ± 0.59	808.75 ± 0.59	805.07 ± 0.58	4.562 ± 0.19	3.925 ± 0.16	3.395 ± 0.14	2.951 ± 0.12
x1 = 0.0625	815.23 ± 0.58	811.62 ± 0.58	807.96 ± 0.57	804.26 ± 0.57	4.361 ± 0.18	3.761 ± 0.16	3.259 ± 0.14	2.839 ± 0.12
x1 = 0.0705	814.74 ± 0.57	811.12 ± 0.57	807.44 ± 0.57	803.74 ± 0.56	4.252 ± 0.18	3.67 ± 0.15	3.185 ± 0.13	2.779 ± 0.12
x1 = 0.0799	814.17 ± 0.56	810.54 ± 0.56	806.85 ± 0.56	803.14 ± 0.56	4.113 ± 0.17	3.555 ± 0.15	3.09 ± 0.13	2.699 ± 0.11
x1 = 0.0912	813.49 ± 0.55	809.83 ± 0.55	806.14 ± 0.55	802.42 ± 0.55	3.959 ± 0.17	3.433 ± 0.14	2.991 ± 0.12	2.621 ± 0.11
x1 = 0.0994	813.01 ± 0.55	809.36 ± 0.54	805.66 ± 0.54	801.92 ± 0.54	3.852 ± 0.16	3.343 ± 0.14	2.913 ± 0.12	2.549 ± 0.11
x1 = 0.1508	809.87 ± 0.5	806.15 ± 0.5	802.39 ± 0.5	798.59 ± 0.49	3.253 ± 0.14	2.842 ± 0.12	2.493 ± 0.1	2.198 ± 0.091
x1 = 0.205	806.42 ± 0.46	802.7 ± 0.46	798.86 ± 0.46	795 ± 0.46	2.733 ± 0.11	2.44 ± 0.1	2.173 ± 0.09	1.892 ± 0.079
x1 = 0.2579	802.99 ± 0.43	799.15 ± 0.43	795.26 ± 0.42	791.32 ± 0.42	2.318 ± 0.096	2.067 ± 0.086	1.848 ± 0.077	1.634 ± 0.068
x1 = 0.3	800.17 ± 0.4	796.26 ± 0.4	792.3 ± 0.4	788.3 ± 0.4	2.047 ± 0.085	1.828 ± 0.076	1.636 ± 0.068	1.468 ± 0.061
x1 = 0.3574	796.2 ± 0.37	792.23 ± 0.37	788.18 ± 0.37	784.11 ± 0.37	1.724 ± 0.071	1.56 ± 0.065	1.392 ± 0.058	1.257 ± 0.052
x1 = 0.4012	793.09 ± 0.35	789.05 ± 0.35	784.94 ± 0.35	780.8 ± 0.35	1.53 ± 0.063	1.368 ± 0.056	1.239 ± 0.051	1.122 ± 0.046
x1 = 0.4501	789.54 ± 0.33	785.43 ± 0.33	781.24 ± 0.33	777.03 ± 0.33	1.324 ± 0.055	1.197 ± 0.049	1.09 ± 0.045	0.9929 ± 0.041
x1 = 0.5028	785.58 ± 0.31	781.39 ± 0.31	777.12 ± 0.31	772.81 ± 0.31	1.145 ± 0.047	1.045 ± 0.043	0.9538 ± 0.039	0.8711 ± 0.036
x1 = 0.5637	780.83 ± 0.29	776.53 ± 0.3	772.16 ± 0.3	767.75 ± 0.3	0.9727 ± 0.04	0.8921 ± 0.037	0.8183 ± 0.034	0.7502 ± 0.031
x1 = 0.598	778.11 ± 0.29	773.75 ± 0.29	769.31 ± 0.29	764.84 ± 0.29	0.8885 ± 0.037	0.8156 ± 0.034	0.7488 ± 0.031	0.6862 ± 0.028
x1 = 0.6508	773.76 ± 0.27	769.32 ± 0.27	764.78 ± 0.28	760.21 ± 0.28	0.7769 ± 0.032	0.7149 ± 0.029	0.6592 ± 0.027	0.6063 ± 0.025
x1 = 0.7	769.62 ± 0.26	765.05 ± 0.27	760.44 ± 0.27	755.77 ± 0.27	0.6805 ± 0.028	0.6305 ± 0.026	0.5829 ± 0.024	0.5443 ± 0.023
x1 = 0.7493	765.32 ± 0.26	760.67 ± 0.26	755.96 ± 0.26	751.19 ± 0.26	0.6088 ± 0.025	0.5658 ± 0.023	0.523 ± 0.022	0.481 ± 0.02
x1 = 0.7994	760.79 ± 0.25	756.02 ± 0.25	751.14 ± 0.25	746.31 ± 0.25	0.5397 ± 0.022	0.5033 ± 0.021	0.4676 ± 0.019	0.4306 ± 0.018
x1 = 0.8514	755.91 ± 0.25	751.04 ± 0.25	746.09 ± 0.25	741.09 ± 0.25	0.4782 ± 0.02	0.4484 ± 0.019	0.4172 ± 0.017	0.389 ± 0.016
x1 = 0.903	750.84 ± 0.24	745.85 ± 0.24	740.79 ± 0.25	735.68 ± 0.25	0.424 ± 0.018	0.397 ± 0.017	0.3679 ± 0.016	0.3464 ± 0.015
x1 = 0.9095	750.2 ± 0.24	745.2 ± 0.24	740.12 ± 0.25	735 ± 0.25	0.418 ± 0.017	0.3923 ± 0.017	0.3635 ± 0.015	0.3436 ± 0.015
x1 = 0.9204	749.1 ± 0.24	744.07 ± 0.24	738.99 ± 0.24	733.83 ± 0.25	0.4077 ± 0.017	0.3825 ± 0.016	0.3535 ± 0.015	0.3351 ± 0.014
x1 = 0.9294	748.16 ± 0.24	743.14 ± 0.24	738 ± 0.24	732.83 ± 0.25	0.3999 ± 0.017	0.3756 ± 0.016	0.3485 ± 0.015	0.3282 ± 0.014
x1 = 0.9397	747.1 ± 0.24	742.04 ± 0.24	736.89 ± 0.24	731.69 ± 0.24	0.3904 ± 0.016	0.3661 ± 0.015	0.3396 ± 0.014	0.3202 ± 0.014
x1 = 0.9495	746.08 ± 0.24	741.01 ± 0.24	735.83 ± 0.24	730.61 ± 0.24	0.382 ± 0.016	0.3603 ± 0.015	0.3326 ± 0.014	0.3124 ± 0.013
x1 = 0.9589	745.09 ± 0.24	739.99 ± 0.24	734.79 ± 0.24	729.54 ± 0.24	0.374 ± 0.016	0.3542 ± 0.015	0.3253 ± 0.014	0.3083 ± 0.013
x1 = 0.969	744.04 ± 0.24	738.91 ± 0.24	733.68 ± 0.24	728.41 ± 0.24	0.3661 ± 0.015	0.3441 ± 0.015	0.3206 ± 0.014	0.3023 ± 0.013
x1 = 0.9791	742.95 ± 0.24	737.79 ± 0.24	732.55 ± 0.24	727.25 ± 0.24	0.3582 ± 0.015	0.337 ± 0.014	0.3139 ± 0.013	0.2969 ± 0.013
x1 = 0.9899	741.78 ± 0.24	736.6 ± 0.24	731.33 ± 0.24	726.01 ± 0.24	0.3508 ± 0.015	0.3303 ± 0.014	0.3069 ± 0.013	0.2898 ± 0.013

Reference: the NIST ThermoML archive (doi:10.1016/j.jct.2011.02.018)
